{"source": "patent US20080249064A1", "about": "“Activities of an active principle obtained from powdered alfalfa seeds (Medicago sativa), active principle used and process of obtaining the same” (SOCIETE INDUSTRIELLE LIMOUSINE D'APPLICATION BIOLOGIQUE …, priority 2004, published 2008)", "key": {"[1]": {"tested_on": "collagen I", "assay": "Synthesis of collagen I in human fibroblasts by ELISA dosage", "type": "cell-based", "conditions": "normal human fibroblasts; retinol at 10^-5 M", "experimental": "The study is conducted on human fibroblasts by ELISA dosage. The fibroblasts are incubated in the presence or not of the active principle, of the fractions or of retinol at 10^−5 M. The results are shown in FIG. 2. Tests have been carried out on normal human fibroblasts by ELISA dosage. The fibroblasts were treated with retinol at 10^−5 M or with the active principle at 0.1%, 0.25% and 0.5%."}, "[2]": {"tested_on": "cutaneous micro-relief", "assay": "Smoothing effect on cutaneous micro-relief of forearms in volunteers (profilometer)", "type": "in vivo, human", "conditions": "active principle 4% or retinol 0.15% in emulsion, bi-daily for 28 days, against placebo", "experimental": "The active principle is formulated at 4% in emulsion, and retinol is formulated at 0.15% in an emulsion. The 2 formulations are tested on 2 groups of volunteers, against a placebo. The tests are carried out and the influence of the active principle or of retinol on the appearance of cutaneous micro-relief, after bi-daily application for 28 days. The analyses are carried out by observation of prints of the cutaneous micro-relief with the help of a profilometer associated with an image analyzer. The zones in question in this study are cutaneous zones of the forearms. The observed parameter is the mean rugosity of the micro-contour."}, "[3]": {"tested_on": "skin", "assay": "Irritating skin reactions in volunteers of the in vivo studies", "parameters": "species or system human", "conditions": "topical emulsion (active principle 4%, retinol 0.15%), bi-daily for 28 days", "experimental": "The active principle is formulated at 4% in an emulsion. Retinol is formulated at 0.15% in an emulsion.\nThe 2 formulae are tests and 2 groups of volunteers, against a placebo.\nThe tests have shown the influence of the active principle or of retinol on the appearance of crows-feet wrinkles, after bi-daily application for 28 days.\nThe active principle is formulated at 4% in emulsion, and retinol is formulated at 0.15% in an emulsion.\nThe 2 formulations are tested on 2 groups of volunteers, against a placebo.\nThe tests are carried out and the influence of the active principle or of retinol on the appearance of cutaneous micro-relief, after bi-daily application for 28 days."}}, "data": [{"smiles": "CC1=C(/C=C/C(C)=C/C=C/C(C)=C/CO)C(C)(C)CCC1", "note": "[retinol]", "values": [{"measurement": "increase of the synthesis of collagen I", "setting": "[1]", "result": 171, "unit": "%"}, {"measurement": "smoothing effect on the micro-contour (mean rugosity) relative to the comparison", "setting": "[2]", "result": 8, "unit": "%"}, {"measurement": "irritating skin reactions", "setting": "[3]", "result": "reactions of the irritating skin type"}]}]}
